Laboratory results from article PMC6289105 (Organic & Biomolecular Chemistry, 2018).

Test system: Helix pomatia agglutinin (HPA)
Assay: Bio-layer interferometry
Assay type: binding
Details: SA and SSA sensors; monovalent reference and negative control

BLI binding signal: no detectable signal
Compound: CC(=O)N[C@H]1C(O)O[C@H](CO)[C@H](O)[C@@H]1O (stereo partly shown) [GalNAc]
